Measurements from PubChem BioAssay AID330 (DTP/NCI, 2004).
Where “and” joins values, the source holds several entries; their conditions need not be identical. Equal values may be shown once. Inconclusive results and toxic doses are left out. Rule for the calls: active = survival T/C of 150% or more; inactive = T/C below 125% in these data.

Tested on: P388 leukemia ip, CD2F1 mice, survival T/C
Assay: NCI In Vivo Anticancer Drug Screen. Data for tumor model P388 Leukemia (intraperitoneal) in CD2F1 (CDF1) mice
Conditions: endpoint: median survival time, higher = longer survival
How it was run: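 Mice carrying the transplanted tumor received test compound or vehicle. Survival was recorded in each group, and the value is the treated-group measurement divided by that of the vehicle-treated control group.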

[1] = dose: 100.0 mg/kg/injection, schedule: Q04DX003 (ip), vehicle: saline with Tween-80
[2] = dose: 200.0 mg/kg/injection, schedule: Q04DX003 (ip), vehicle: saline with Tween-80
[3] = dose: 400.0 mg/kg/injection, schedule: Q04DX003 (ip), vehicle: saline with Tween-80
[4] = dose: 60.0 mg/kg/injection, schedule: Q01DX005 (ip), vehicle: saline with Tween-80
[5] = dose: 120.0 mg/kg/injection, schedule: Q01DX005 (ip), vehicle: saline with Tween-80
[6] = dose: 240.0 mg/kg/injection, schedule: Q01DX005 (ip), vehicle: saline with Tween-80
[7] = dose: 50.0 mg/kg/injection, schedule: Q01DX009 (ip), vehicle: saline
[8] = dose: 200.0 mg/kg/injection, schedule: Q01DX009 (ip), vehicle: saline
[9] = dose: 100.0 mg/kg/injection, schedule: Q01DX009 (ip), vehicle: saline with Tween-80
[10] = dose: 200.0 mg/kg/injection, schedule: Q01DX009 (ip), vehicle: saline with Tween-80
[11] = dose: 100.0 mg/kg/injection, schedule: Q04DX002 (ip), vehicle: saline with Tween-80
[12] = dose: 200.0 mg/kg/injection, schedule: Q04DX002 (ip), vehicle: saline with Tween-80
[13] = dose: 400.0 mg/kg/injection, schedule: Q04DX002 (ip), vehicle: saline with Tween-80
[14] = dose: 100.0 mg/kg/injection, schedule: Q04DX003 (ip), vehicle: Klucel (hydroxypropylcellulose) (HPC)
[15] = dose: 200.0 mg/kg/injection, schedule: Q04DX003 (ip), vehicle: Klucel (hydroxypropylcellulose) (HPC)
[16] = dose: 400.0 mg/kg/injection, schedule: Q04DX003 (ip), vehicle: Klucel (hydroxypropylcellulose) (HPC)

Measured: T/C

CC12CCC(Br)C(C)(C)C1CC=C1C(=O)OCC1O2 (centres undefined)
inactive: dose: 7.5 mg/kg/injection, schedule: Q01DX009 (ip), vehicle: Klucel (hydroxypropylcellulose) (HPC) 101 % of control | dose: 15.0 mg/kg/injection, schedule: Q01DX009 (ip), vehicle: Klucel (hydroxypropylcellulose) (HPC) 105 % of control | dose: 30.0 mg/kg/injection, schedule: Q01DX009 (ip), vehicle: Klucel (hydroxypropylcellulose) (HPC) 111 % of control | dose: 60.0 mg/kg/injection, schedule: Q01DX009 (ip), vehicle: Klucel (hydroxypropylcellulose) (HPC) 111 % of control

COCC(=O)C(C(C)=O)C(c1ccc2c(c1)OCO2)C(C(C)=O)C(=O)COC (centres undefined)
inactive: [1] 90 % of control | [2] 90 % of control | [3] 95 % of control

O=C(c1ccccc1)C1CCCN(c2ccccc2)S1(=O)=O (centres undefined)
inactive: [1] 98 % of control | [2] 104 % of control | [3] 94 % of control

O=S(=O)(c1ccc(NC(=S)N2CCOCC2)cc1)N1CCCCC1
inactive: dose: 50.0 mg/kg/injection, schedule: Q01DX009 (ip), vehicle: Klucel (hydroxypropylcellulose) (HPC) 100 % of control | dose: 100.0 mg/kg/injection, schedule: Q01DX009 (ip), vehicle: Klucel (hydroxypropylcellulose) (HPC) 96 % of control | dose: 200.0 mg/kg/injection, schedule: Q01DX009 (ip), vehicle: Klucel (hydroxypropylcellulose) (HPC) 97 % of control

CC(=O)Oc1ccc2c(c1)C(=O)CCCCCCC(=O)O2
inactive: dose: 100.0 mg/kg/injection, schedule: Q01DX001 (ip), vehicle: saline 101 % of control | dose: 200.0 mg/kg/injection, schedule: Q01DX001 (ip), vehicle: saline 95 % of control | dose: 400.0 mg/kg/injection, schedule: Q01DX001 (ip), vehicle: saline 105 % of control

CC(C)[CH2][Sn]1([CH2]C(C)C)[O]CCNCC[O]1
inactive: dose: 0.78 mg/kg/injection, schedule: Q01DX009 (ip), vehicle: saline 105 % of control | dose: 1.56 mg/kg/injection, schedule: Q01DX009 (ip), vehicle: saline 109 % of control | dose: 3.12 mg/kg/injection, schedule: Q01DX009 (ip), vehicle: saline 88 % of control

O=c1c2ccccc2cnn1CO
inactive: dose: 100.0 mg/kg/injection, schedule: Q04DX003 (ip), vehicle: saline 114 % of control | dose: 200.0 mg/kg/injection, schedule: Q04DX003 (ip), vehicle: saline 119 % of control

COc1ccc2c(c1OC)C[N+]1(C)CCc3cc4c(cc3C1=C2C)OCO4 (centres undefined)
inactive: dose: 1.56 mg/kg/injection, schedule: Q01DX005 (ip), vehicle: Klucel (hydroxypropylcellulose) (HPC) 99 % of control | dose: 3.12 mg/kg/injection, schedule: Q01DX005 (ip), vehicle: Klucel (hydroxypropylcellulose) (HPC) 99 % of control | dose: 6.25 mg/kg/injection, schedule: Q01DX005 (ip), vehicle: Klucel (hydroxypropylcellulose) (HPC) 103 % of control and 113 % of control

O=C1c2ccccc2-c2c1c1ccccc1c(=O)n2Cc1ccco1
inactive: dose: 0.75 mg/kg/injection, schedule: Q01DX005 (ip), vehicle: saline with Tween-80 100 % of control | dose: 1.5 mg/kg/injection, schedule: Q01DX005 (ip), vehicle: saline with Tween-80 100 % of control | dose: 3.0 mg/kg/injection, schedule: Q01DX005 (ip), vehicle: saline with Tween-80 103 % of control

Nc1cccc(S(=O)(=O)Nc2c(N)nc(SCC(=O)O)[nH]c2=O)c1
inactive: dose: 60.0 mg/kg/injection, schedule: Q01DX005 (ip), vehicle: Klucel (hydroxypropylcellulose) (HPC) 100 % of control | dose: 120.0 mg/kg/injection, schedule: Q01DX005 (ip), vehicle: Klucel (hydroxypropylcellulose) (HPC) 98 % of control | dose: 240.0 mg/kg/injection, schedule: Q01DX005 (ip), vehicle: Klucel (hydroxypropylcellulose) (HPC) 98 % of control

CC(C)C12CN1C2(c1ccccc1)c1ccccc1 (centres undefined)
inactive: [4] 100 % of control | [5] 106 % of control | [6] 107 % of control

Cc1cccc(CCl)n1
inactive: [7] 90 % of control | dose: 100.0 mg/kg/injection, schedule: Q01DX009 (ip), vehicle: saline 107 % of control | [8] 105 % of control

CC(C)(C)c1ccc(C(=O)NCSCC(NC(=O)CCC(N)C(=O)O)C(=O)NCC(=O)O)cc1 (centres undefined)
inactive: [4] 98 % of control | [5] 104 % of control | [6] 86 % of control

c1ccc(Cc2ccccn2)nc1
inactive: [9] 104 % of control | [10] 104 % of control | dose: 400.0 mg/kg/injection, schedule: Q01DX009 (ip), vehicle: saline with Tween-80 95 % of control

COc1ccc(N2C(=O)CC(n3ccccc3=O)C2=O)cc1 (centres undefined)
inactive: [11] 100 % of control | [12] 99 % of control | [13] 101 % of control

CC(=O)OCc1ncccc1OC(C)=O
inactive: dose: 25.0 mg/kg/injection, schedule: Q01DX009 (ip), vehicle: saline with Tween-80 104 % of control | dose: 50.0 mg/kg/injection, schedule: Q01DX009 (ip), vehicle: saline with Tween-80 111 % of control | [9] 104 % of control | [10] 109 % of control

C=Cn1c([N+](=O)[O-])cnc1/C=C/c1ccc(C(=O)OCCN2CCCCC2)cc1
inactive: [11] 90 % of control | [14] 105 % of control | [12] 90 % of control | [15] 102 % of control | [13] 90 % of control | [16] 102 % of control

NC1=NN(Cc2csc(-c3ccccc3)n2)C(=O)C1
inactive: [4] 103 % of control | [5] 95 % of control | [6] 103 % of control

O=c1[nH]c2ccccc2[nH]c1=O
inactive: [7] 100 % of control | [9] 94 % of control | [10] 92 % of control | [8] 100 % of control and 97 % of control | dose: 400.0 mg/kg/injection, schedule: Q01DX009 (ip), vehicle: saline 88 % of control

COc1cc2c(cc1O)CCN[C@H]2C
inactive: dose: 50.0 mg/kg/injection, schedule: Q01DX005 (ip), vehicle: saline 100 % of control | dose: 100.0 mg/kg/injection, schedule: Q01DX005 (ip), vehicle: saline 100 % of control | dose: 200.0 mg/kg/injection, schedule: Q01DX005 (ip), vehicle: saline 108 % of control

CCOC(=O)C1C(=O)CN(C(=O)OC)C1C (centres undefined)
inactive: dose: 50.0 mg/kg/injection, schedule: Q01DX005 (ip), vehicle: saline with Tween-80 96 % of control | dose: 100.0 mg/kg/injection, schedule: Q01DX005 (ip), vehicle: saline with Tween-80 99 % of control | dose: 200.0 mg/kg/injection, schedule: Q01DX005 (ip), vehicle: saline with Tween-80 93 % of control

O=C1/C(=C\c2ccccc2)C/C1=C\c1ccccc1
inactive: [14] 97 % of control | [15] 100 % of control | [16] 95 % of control

COc1cc2c(cc1OC)C(Cc1ccccc1NC(=O)c1ccc(C(=O)Nc3ccccc3CC3c4cc(OC)c(OC)cc4CCN3C)cc1)N(C)CC2 (centres undefined)
inactive: [4] 89 % of control | [5] 88 % of control | [6] 94 % of control

CCCCNc1cc(Nc2ccc(Br)cc2)nc(N)n1
inactive: dose: 6.25 mg/kg/injection, schedule: Q04DX003 (ip), vehicle: saline with Tween-80 106 % of control | dose: 12.5 mg/kg/injection, schedule: Q04DX003 (ip), vehicle: saline with Tween-80 99 % of control | dose: 25.0 mg/kg/injection, schedule: Q04DX003 (ip), vehicle: saline with Tween-80 106 % of control | dose: 50.0 mg/kg/injection, schedule: Q04DX003 (ip), vehicle: saline with Tween-80 100 % of control

O=C1c2ccccc2C(=Nc2ccccc2)c2c1c(O)n(-c1ccccc1)c2O
inactive: dose: 50.0 mg/kg/injection, schedule: Q01DX005 (ip), vehicle: Klucel (hydroxypropylcellulose) (HPC) 97 % of control | dose: 100.0 mg/kg/injection, schedule: Q01DX005 (ip), vehicle: Klucel (hydroxypropylcellulose) (HPC) 91 % of control | dose: 200.0 mg/kg/injection, schedule: Q01DX005 (ip), vehicle: Klucel (hydroxypropylcellulose) (HPC) 96 % of control

O=c1cc[nH]c(=O)o1
inactive: dose: 6.25 mg/kg/injection, schedule: Q01DX009 (ip), vehicle: water 108 % of control | dose: 12.5 mg/kg/injection, schedule: Q01DX009 (ip), vehicle: water 119 % of control | dose: 25.0 mg/kg/injection, schedule: Q01DX009 (ip), vehicle: water 124 % of control | dose: 50.0 mg/kg/injection, schedule: Q01DX009 (ip), vehicle: water 121 % of control

CCN(CC)C1=NS(=O)(=O)c2ccccc2C(SC)=C1C
inactive: [11] 106 % of control | [12] 100 % of control | [13] 100 % of control
